Test results reported in patent US20230051797A1, “METHOD FOR RECOVERING EXTRACELLULAR VESICLE AND BLOOD COLLECTION VESSEL” (FUJIREBIO INC., priority 2019, published 2023).
Where two headings read alike, the source gives them in different places.

Tests used:
[1] = system: human whole blood; experiment: Confirmation of presence and absence of hemolysis in whole blood with surfactant (Example 2)
Experimental: A surfactant was added to human whole blood for confirmation of presence and absence of hemolysis. […] Octyltrimethylammonium bromide (C8TAB) and hexadecyltrimethylammonium chloride (C16TAC) were used as cationic surfactants. N-decanoyl sarcosine sodium (N-DSS (NDS)) and N-lauroyl sarcosine sodium hydrate (NLS) were used as anionic surfactants. As amphoteric surfactants, CHAPS and N-dodecyl-N,N-dimethyl-3-ammonio-l-propanesulfonate (C12APS) were used.
More specifically, 900 μL of whole blood obtained after blood collection was added to the 5 mL polypropylene test tube (manufactured by nunc) containing 100 μL of D-PBS (-) supplemented with the surfactant. The surfactant was added to achieve a final concentration of 0.5 W/V % after mixed with whole blood. After the addition of whole blood, the test tubes were inverted for mixing, and allowed to stand at room temperature for 30 minutes. After centrifugation (3000 rpm, 5 minutes), the supernatant was collected for visual check of the presence and absence of hemolysis.

[2] = system: CD9, the surface marker protein of extracellular vesicle (EV); experiment: Recovery of EV from whole blood supplemented with chelating agent and surfactant (CD9 in supernatant, Example 3); set-up: species or system human; conditions: chelating agent 60 mM
Experimental: The chelating agent and the surfactant were added to human whole blood. CD9 was measured in the supernatant after centrifugation. […]

[3] = system: CD9, the surface marker protein of the extracellular vesicle (EV); experiment: Recovery of EV from whole blood with chelating agent (CD9 measured in supernatant, Example 1); set-up: species or system human; conditions: chelating agent final concentration 15 mM in whole blood
Experimental: 20 μL of the sample for measurement and 50 μL of the anti-CD9 antibody solid-phased particle solution were dispensed into the reaction vessel and stirred. Then, the resulting solution was incubated at 37° C. for 8 minutes (primary reaction), and B/F separation and washing were carried out. 50 μL of the ALP-labeled antibody was dispensed into the reaction vessel, the resulting solution was stirred and then incubated at 37° C. for 8 minutes, and B/F separation and washing were carried out. Then, 200 μL of Lumipulse (registered trademark) substrate solution (Fujirebio Inc.) containing 3-(2′-spiroadamantane)-4-methoxy-4-(3″-phosphoryloxy)phenyl-1,2-dioxetane disodium salt (AMPPD) serving as a chemiluminescent substance was dispensed into the reaction chamber. The resulting solution was stirred and then incubated at 37° C. for 4 minutes for the measurement of luminescence intensity using luminometer. A count value was obtained as the measured value. The luminescence intensity was measured using a fully automated chemiluminescent enzyme immunoassay system (Lumipulse L2400 (Fujirebio Inc.)). […]
The chelating agent was added to human whole blood. After centrifugation, CD9 in the supernatant was measured. […]

[4] = system: CD9, the surface marker protein of extracellular vesicle (EV); experiment: Study of surfactant type in combination with EGTA (CD9 in supernatant, Example 6); set-up: species or system human; conditions: EGTA 200 mM, no surfactant (D-PBS(-))
Experimental: To 0.01 g/mL of magnetic particles in 10 mM MES buffer (pH 5.0), 0.2 mg/mL of a mouse anti-CD9 monoclonal antibody (Fujirebio Inc.) that recognizes an extracellular vesicle (EV) surface marker CD9, was added. Then, the resulting solution was gently stirred at 25° C. for one hour for incubation. After the reaction, the magnetic particles were magnetically collected and washed with a washing solution (50 mM Tris buffer, 150 mM NaCl2, 2.0% BSA, pH 7.2) in order to obtain anti-CD9 antibody solid-phased particles. Each antibody solid-phased particle was suspended in a particle diluent (50 mM Tris buffer, 1 mM EDTA-2Na, 0.1% NaN3, 2.0% BSA, pH 7.2) in order to obtain each antibody solid-phased particle solution. […]
20 μL of the sample for measurement and 50 μL of the anti-CD9 antibody solid-phased particle solution were dispensed into the reaction vessel and stirred. […] The resulting solution was stirred and then incubated at 37° C. for 4 minutes for the measurement of luminescence intensity using luminometer. A count value was obtained as the measured value. The luminescence intensity was measured using a fully automated chemiluminescent enzyme immunoassay system (Lumipulse L2400 (Fujirebio Inc.)). […]

[5] = system: CD9, the surface marker protein of extracellular vesicle (EV); experiment: Study of concentrations of chelating agent and surfactant (CD9 in supernatant, Example 4); set-up: species or system human; conditions: Tergitol 15-S-40 0%
Experimental: (§1) To 0.01 g/mL of magnetic particles in 10 mM MES buffer (pH 5.0), 0.2 mg/mL of a mouse anti-CD9 monoclonal antibody (Fujirebio Inc.) that recognizes an extracellular vesicle (EV) surface marker CD9, was added. Then, the resulting solution was gently stirred at 25° C. for one hour for incubation. After the reaction, the magnetic particles were magnetically collected and washed with a washing solution (50 mM Tris buffer, 150 mM NaCl2, 2.0% BSA, pH 7.2) in order to obtain anti-CD9 antibody solid-phased particles. Each antibody solid-phased particle was suspended in a particle diluent (50 mM Tris buffer, 1 mM EDTA-2Na, 0.1% NaN3, 2.0% BSA, pH 7.2) in order to obtain each antibody solid-phased particle solution.
(§2) Desalted alkaline phosphatase (ALP) was mixed with N-(4-maleimidobutyryloxy)-succinimide (GMBS) (final concentration 0.3 mg/mL) and the resulting solution was allowed to stand at 30° C. for one hour for maleimidation of ALP. Next, in a coupling reactant solution (100 mM phosphate buffer, 1 mM EDTA-2Na, pH 6.3), Fab's of mouse anti-CD9 monoclonal antibody was mixed with maleimidized ALP at a molar ratio of 1: 1, and reacted at 25° C. for one hour. The reactant solution was subjected to purification using Superdex 200 column chromatography (General Electric Company) to obtain ALP-labeled anti-CD9 antibody. Each ALP-labeled antibody was suspended in a labeled antibody diluent (50 mM MES buffer, 150 mM NaCl2, 0.3 mM ZnCl2, 1 mM MgCl2, 0.1% NaN3, 2.0% BSA, pH 6.8) to obtain each labeled antibody solution.
(§3) 20 μL of the sample for measurement and 50 μL of the anti-CD9 antibody solid-phased particle solution were dispensed into the reaction vessel and stirred. Then, the resulting solution was incubated at 37° C. for 8 minutes (primary reaction), and B/F separation and washing were carried out. 50 μL of the ALP-labeled antibody was dispensed into the reaction vessel, the resulting solution was stirred and then incubated at 37° C. for 8 minutes, and B/F separation and washing were carried out. Then, 200 μL of Lumipulse (registered trademark) substrate solution (Fujirebio Inc.) containing 3-(2′-spiroadamantane)-4-methoxy-4-(3″-phosphoryloxy)phenyl-1,2-dioxetane disodium salt (AMPPD) serving as a chemiluminescent substance was dispensed into the reaction chamber. The resulting solution was stirred and then incubated at 37° C. for 4 minutes for the measurement of luminescence intensity using luminometer. A count value was obtained as the measured value. The luminescence intensity was measured using a fully automated chemiluminescent enzyme immunoassay system (Lumipulse L2400 (Fujirebio Inc.)).
Antibodies recognizing the same epitope in CD9 were used as the antibody solid-phased on the magnetic particle and the ALP-labeled antibody. Due to the presence of a plurality of CD9 on a single extracellular vesicle, it is possible to measure for the extracellular vesicle presenting a plurality of CD9 to be indicated as the surface marker rather than free CD9 by means of the sandwich immunoassay in which the antibodies recognizing the same epitope as the solid-phased antibodies were used as the ALP-labeled antibodies.
Various concentrations of the chelating agent and the surfactant were added to human whole blood, for the measurement of CD9 in the supernatant obtained after centrifugation. […]

[6] = system: CD9, the surface marker protein of extracellular vesicle (EV); experiment: Study of action of chelating agent and surfactant on whole blood or on immune reaction (CD9, Example 5); set-up: species or system human; conditions: for vs. no EGTA (%): 100 mM EGTA in particle solution vs none
Experimental: as §1, §2
as §3, with “Inc.)). […]” for “Inc.)).”
In addition, CD9 was measured also for a solution obtained by adding 100 mM EGTA to the CD9 antibody solid-phased particle solution. […]

[7] = surfactant final 0.5 W/V % in whole blood, visual check of supernatant

With `CCCCCCCCCCCC[N+](C)(C)CCCS(=O)(=O)[O-]` [C12APS, N-dodecyl-N,N-dimethyl-3-ammonio-l-propanesulfonate] the “Hemolysis, Specimen 1” value [1, 7] was “Hemolysis” and the “Hemolysis, Specimen 2” value [1, 7] was “Hemolysis”.

In the case of `CCCCCCCCCCCCCCCC[N+](C)(C)C.[Cl-]` [C16TAC, hexadecyltrimethylammonium chloride], the “Hemolysis, Specimen 1” value [1, 7] is reported as “Hemolysis” and the “Hemolysis, Specimen 2” value [1, 7] is reported as “Hemolysis”.

With `C[C@H](CCC(=O)NCCC[N+](C)(C)CCCS(=O)(=O)[O-])[C@H]1CC[C@H]2[C@@H]3[C@H](O)C[C@@H]4C[C@H](O)CC[C@]4(C)[C@H]3C[C@H](O)[C@]12C` [CHAPS] the “Hemolysis, Specimen 1” value [1, 7] was “Hemolysis” and the “Hemolysis, Specimen 2” value [1, 7] was “Hemolysis”.

With `O=C(O)CN(CCN(CC(=O)O)CC(=O)O)CC(=O)O.[Na].[Na]` [EDTA2Na, disodium ethylenediaminetetraacetic acid] the “vs. No chelating agent and surfactant added (%)” value [2] was 196.6% and the “vs. non-addition (%)” value [3] was 376.6%.

In the case of `O=C(O)CN(CCOCCOCCN(CC(=O)O)CC(=O)O)CC(=O)O` [EGTA, glycol ether diamine tetraacetic acid], the “vs. No chelating agent and surfactant added (%)” value [2] is reported as 332.6%, the vs. non-addition [4] is reported as 366.4 and the “CD9 vs. 0 mM EGTA (%)” value ([5]; EGTA 10 mM) is reported as 154%. For the same compound, the “CD9 vs. 0% Tergitol (%)” value ([5]; EGTA 50 mM) was 294%, the “CD9 vs. 0 mM EGTA (%)” value ([5]; EGTA 50 mM) was 294% and the “CD9 vs. 0 mM EGTA (%)” value ([5]; EGTA 100 mM) was 532%. For the same compound, the “CD9 vs. 0 mM EGTA (%)” value ([5]; EGTA 200 mM) was 721%, the “vs. no EGTA (%)” value ([6]; blood collection vessel: 200 mM EGTA, 0% Tergitol) was 112.9% and the “vs. no EGTA (%)” value ([6]; blood collection vessel: nothing added) was 71%. The “vs. non-addition (%)” value ([6]; blood collection vessel: 200 mM EGTA, 0% Tergitol, particle solution: 100 mM EGTA + 0.5% Tergitol) was 843.5%, the “vs. non-addition (%)” value ([6]; blood collection vessel: 200 mM EGTA, 0% Tergitol, particle solution: 0.5% Tergitol) was 530.5% and the “vs. non-addition (%)” value [3] was 215%.

In the case of `O=C(O)CN(CCO)CCN(CC(=O)O)CC(=O)O` [HEDTA, hydroxyethyl ethylenediaminetriacetic acid], the “vs. non-addition (%)” value [3] is reported as 963.9%.

For `CCCCCCCCCC(=O)N(C)CC(=O)O.[Na]` [N-DSS (NDS), N-decanoyl sarcosine sodium], the “Hemolysis, Specimen 1” value [1] was “Hemolysis” and the “Hemolysis, Specimen 2” value [1] was “Hemolysis”.

`CCCCCCCCCCCC(=O)N(C)CC(=O)O.O.[Na]` [NLS, N-lauroyl sarcosine sodium hydrate] was tested, and the “Hemolysis, Specimen 1” value [1] was “Hemolysis” and the “Hemolysis, Specimen 2” value [1] was “Hemolysis”.

In the case of `O=C(O)CN(CC(=O)O)CC(=O)O` [NTA, nitrilotriacetic acid], the “vs. non-addition (%)” value [3] is reported as 427.7%.
